Patent publication US9914730B2, “Azaquinazoline inhibitors of Atypical protein Kinase C” (Ignyta, Inc., priority 2012, dated 2018)

Molecular target: T1, full-length human PKCι (Homo sapiens, UniProt P41743)
T1 construct: Recombinant, full-length human PKCι expressed in Sf21 insect cells is also commercially available; purchased; host or cells: Sf21 insect cells
T1 sequence (P41743 1-596): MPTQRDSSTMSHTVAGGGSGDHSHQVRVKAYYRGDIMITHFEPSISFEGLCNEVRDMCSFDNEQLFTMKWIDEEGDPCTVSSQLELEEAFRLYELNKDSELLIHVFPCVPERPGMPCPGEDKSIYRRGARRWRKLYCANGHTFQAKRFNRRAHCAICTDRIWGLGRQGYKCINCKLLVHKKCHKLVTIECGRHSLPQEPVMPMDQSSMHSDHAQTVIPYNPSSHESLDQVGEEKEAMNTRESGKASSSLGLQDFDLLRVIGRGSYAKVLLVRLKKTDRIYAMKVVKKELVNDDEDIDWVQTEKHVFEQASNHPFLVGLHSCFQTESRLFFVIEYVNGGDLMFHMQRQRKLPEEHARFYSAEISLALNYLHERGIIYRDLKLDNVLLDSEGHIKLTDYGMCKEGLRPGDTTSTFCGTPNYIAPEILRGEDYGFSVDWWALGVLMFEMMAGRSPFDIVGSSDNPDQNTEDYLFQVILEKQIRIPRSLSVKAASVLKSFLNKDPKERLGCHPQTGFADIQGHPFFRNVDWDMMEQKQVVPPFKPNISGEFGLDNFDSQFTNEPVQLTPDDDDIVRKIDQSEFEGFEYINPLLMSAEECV
Assay: PKCι IC50 IMAP assay, full-length PKCι at 150 μM ATP
Format: biochemical
Details: read-out: IC50 in IMAP assay against full length PKCi at 150 μM ATP
In short: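 Recombinant full-length human PKCι (Sf21-expressed, typically 15 pM) phosphorylated 100 nM 5FAM-labelled PKCε pseudosubstrate-derived peptide with 150 μM ATP (5× KM^APP) in 18 mM tris-HCl pH7.5, 9 mM MgCl2, EGTA, DTT, 4% DMSO. After 60 min at room temperature, IMAP binding reagent was added for 2 h and fluorescence polarisation read.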

SMILES | IC50
CN(c1nc(-c2ccnc(Nc3ncc(F)cc3F)c2)nc2cncc(C3CC3)c12)C1CCOCC1 [Example 2172, {5-Cyclopropyl-2-[2-(3,5-difluoro-pyridin-2-ylamino)-pyridin-4-yl]-pyrido[3,4-d]pyrimidin-4-yl}-methyl-(tetrahydro-pyran-4-yl)-amine] | 1000 to 10000 nM
Fc1cnc(Nc2cc(-c3nc(N4CCC(C5CCOCC5)C4)c4c(C5CC5)cncc4n3)ccn2)c(F)c1 (centres unmarked) [Example 2173, (4-{5-Cyclopropyl-4-[3-(tetrahydro-pyran-4-yl)-pyrrolidin-1-yl]-pyrido[3,4-d]pyrimidin-2-yl}-pyridin-2-yl)-(3,5-difluoro-pyridin-2-yl)-amine] | 1000 to 10000 nM
Fc1cnc(Nc2cc(-c3nc(NC4CCNCC4F)c4c(C5CC5)cncc4n3)ccn2)c(F)c1 (centres unmarked) [Example 2186, {5-Cyclopropyl-2-[2-(3,5-difluoro-pyridin-2-ylamino)-pyridin-4-yl]-pyrido[3,4-d]pyrimidin-4-yl}-(3-fluoro-piperidin-4-yl)-amine] | 100 to 1000 nM
Fc1cc(F)c(Nc2cc(-c3nc(N4CCNCC4)c4c(C5CC5)cnc(C5CC5)c4n3)ccn2)nc1F [Example 2187, [4-(5,8-Dicyclopropyl-4-piperazin-1-yl-pyrido[3,4-d]pyrimidin-2-yl)-pyridin-2-yl]-(3,5,6-trifluoro-pyridin-2-yl)-amine] | 100 to 1000 nM
Fc1cnc(Nc2cc(-c3nc(N4CCNCC4)c4c(C5CC5)cnc(C5CC5)c4n3)ccn2)c(F)c1 [Example 2188, [4-(5,8-Dicyclopropyl-4-piperazin-1-yl-pyrido[3,4-d]pyrimidin-2-yl)-pyridin-2-yl]-(3,5-difluoro-pyridin-2-yl)-amine] | 100 to 1000 nM
Fc1cccc(F)c1Nc1cc(-c2nc(N3CCNCC3)c3c(C4CC4)cnc(C4CC4)c3n2)ccn1 [Example 2189, [4-(5,8-Dicyclopropyl-4-piperazin-1-yl-pyrido[3,4-d]pyrimidin-2-yl)-pyridin-2 yl]-(2,6-difluoro-phenyl)-amine] | 100 to 1000 nM
CC(C)(C)c1cc2c(-c3nc(N4CCNCC4)c4c(C5CC5)cnc(C5CC5)c4n3)ccnc2[nH]1 [Example 2190, 2-(2-tert-Butyl-1H-pyrrolo[2,3-b]pyridin-4-yl)-5,8-dicyclopropyl-4-piperazin-1-yl-pyrido[3,4-d]pyrimidine] | < 100 nM
Fc1ccc(Nc2cc(-c3nc(N4CCNCC4)c4c(C5CC5)cncc4n3)ccn2)nn1 [Example 2191, [4-(5-Cyclopropyl-4-piperazin-1-yl-pyrido[3,4-d]pyrimidin-2-yl)-pyridin-2-yl]-(6-fluoro-pyridazin-3-yl)-amine] | < 100 nM
c1cc(-c2nc(N3CCNCC3)c3c(C4CC4)cncc3n2)c2cc(C3CCOC3)[nH]c2n1 (centres unmarked) [Example 2192, 5-Cyclopropyl-4-piperazin-1-yl-2-[2-(tetrahydro-furan-3-yl)-1H-pyrrolo[2,3-b]pyridin-4-yl]-pyrido[3,4-d]pyrimidine] | < 100 nM
Fc1cccc(F)c1Nc1cc(-c2nc(N3CCNCC3)c3c(C(F)(F)F)cncc3n2)ccn1 [Example 2193, (2,6-Difluoro-phenyl)-[4-(4-piperazin-1-yl-5-trifluoromethyl-pyrido[3,4-d]pyrimidin-2-yl)-pyridin-2-yl]-amine] | < 100 nM

Second part, the compound after the results:

IC50 | SMILES
< 100 nM | Fc1cc(Cl)cnc1Nc1cc(-c2nc(N3CCNCC3)c3c(C4CC4)cncc3n2)ccn1 [Example 2171, (5-Chloro-3-fluoro-pyridin-2-yl)-[4-(5-cyclopropyl-4-piperazin-1-yl-pyrido[3,4-d]pyrimidin-2-yl)-pyridin-2-yl]-amine]
< 100 nM | CC1(Nc2nc(-c3ccnc(Nc4ncc(F)cc4F)c3)nc3cncc(C4CC4)c23)CCNCC1 [Example 2174, {5-Cyclopropyl-2-[2-(3,5-difluoro-pyridin-2-ylamino)-pyridin-4-yl]-pyrido[3,4-d]pyrimidin-4-yl}-(4-methyl-piperidin-4-yl)-amine]
< 100 nM | CC1(C)CNCCC1Nc1nc(-c2ccnc(Nc3ncc(F)cc3F)c2)nc2cncc(C3CC3)c12 (centres unmarked) [Example 2175, {5-Cyclopropyl-2-[2-(3,5-difluoro-pyridin-2-ylamino)-pyridin-4-yl]-pyrido[3,4-d]pyrimidin-4-yl}-(3,3-dimethyl-piperidin-4-yl)-amine]
< 100 nM | CC1(C)CNCCC1Nc1nc(-c2ccnc(Nc3nc(F)c(F)cc3F)c2)nc2cncc(C3CC3)c12 (centres unmarked) [Example 2176, {5-Cyclopropyl-2-[2-(3,5,6-trifluoro-pyridin-2-ylamino)-pyridin-4-yl]-pyrido[3,4-d]pyrimidin-4-yl}-(3,3-dimethyl-piperidin-4-yl)-amine]
< 100 nM | CC1(C)CC(Nc2cc(-c3nc(N4CCNCC4)c4c(C5CC5)cncc4n3)ccn2)c2ccccc21 (centres unmarked) [Example 2177, [4-(5-Cyclopropyl-4-piperazin-1-yl-pyrido[3,4-d]pyrimidin-2-yl)-pyridin-2-yl]-(3,3-dimethyl-indan-1-yl)-amine]
< 100 nM | Fc1cc(F)c(Nc2cc(-c3nc(N4CCNCC4)c4c(C5CC5)cnc(Cl)c4n3)ccn2)nc1F [Example 2178, [4-(8-Chloro-5-cyclopropyl-4-piperazin-1-yl-pyrido[3,4-d]pyrimidin-2-yl)-pyridin-2-yl]-(3,5,6,-trifluoro-pyridin-2-yl)-amine]
< 100 nM | Fc1cccnc1-c1cc2c(-c3nc(N4CCNCC4)c4c(C5CC5)cncc4n3)ccnc2[nH]1 [Example 2179, 5-Cyclopropyl-2-[2-(3-fluoro-pyridin-2-yl)-1H-pyrrolo[2,3-b]pyridin-4-yl]-4-piperazin-1-yl-pyrido[3,4-d]pyrimidine]
< 100 nM | Fc1cccnc1-c1cc2c(-c3nc(N4CCNCC4)c4c(C5CCC5)cncc4n3)ccnc2[nH]1 [Example 2180, 5-Cyclobutyl-2-[2-(3-fluoro-pyridin-2-yl)-1H-pyrrolo[2,3-b]pyridin-4-yl]-4-piperazin-1-yl-pyrido[3,4-d]pyrimidine]
< 100 nM | c1ccc(C2(c3cc4c(-c5nc(N6CCNCC6)c6c(C7CCC7)cncc6n5)ccnc4[nH]3)CCC2)cc1 [Example 2181, 5-Cyclobutyl-2-[2-(1-phenyl-cyclobutyl)-1H-pyrrolo[2,3-b]pyridin-4-yl]-4-piperazin-1-yl-pyrido[3,4-d]pyrimidine]
< 100 nM | CC(C)(c1cc2c(-c3nc(N4CCNCC4)c4c(C5CCC5)cncc4n3)ccnc2[nH]1)C(F)(F)F [Example 2182, 5-Cyclobutyl-4-piperazin-1-yl-2-[2-(2,2,2-trifluoro-1,1-dimethyl-ethyl)-1H-pyrrolo[2,3-b]pyridin-4-yl]-pyrido[3,4-d]pyrimidine]
< 100 nM | FC(F)(F)C1(c2cc3c(-c4nc(N5CCNCC5)c5c(C6CCC6)cncc5n4)ccnc3[nH]2)CCC1 [Example 2183, 5-Cyclobutyl-4-piperazin-1-yl-2-[2-(1-trifluoromethyl-cyclobutyl)-1H-pyrrolo[2,3-b]pyridin-4-yl]-pyrido[3,4-d]pyrimidine]
< 100 nM | c1cc(-c2nc(N3CCNCC3)c3c(C4CCC4)cncc3n2)c2cc(C3CCOC3)[nH]c2n1 (centres unmarked) [Example 2184, 5-Cyclobutyl-4-piperazin-1-yl-2-[2-(tetrahydro-furan-3-yl)-1H-pyrrolo[2,3-b]pyridin-4-yl]-pyrido[3,4-d]pyrimidine]
< 100 nM | c1cc(-c2nc(N3CCNCC3)c3c(C4CCC4)cncc3n2)c2cc(C3CCCO3)[nH]c2n1 (centres unmarked) [Example 2185, 5-Cyclobutyl-4-piperazin-1-yl-2-[2-(tetrahydro-furan-2-yl)-1H-pyrrolo[2,3-b]pyridin-4-yl]-pyrido[3,4-d]pyrimidine]
